Measurements reported in ChEMBL document CHEMBL4507268 (2021).

Assays:
[1] = target: SRSF protein kinase 3 (Homo sapiens) (UniProt Q9UPE1); conditions: Compound concentration 1000.0 nM
[2] = target: SRSF protein kinase 2 (Homo sapiens) (UniProt P78362); conditions: Compound concentration 1000.0 nM
[3] = target: Dual specificity mitogen-activated protein kinase kinase 1 (Homo sapiens) (UniProt Q02750); conditions: Compound concentration 1000.0 nM
[4] = tested on: Phosphatidylinositol 4,5-bisphosphate 3-kinase catalytic subunit alpha isoform (Homo sapiens), P42336 [Q546K]; conditions: Compound concentration 1000.0 nM
Chain of Phosphatidylinositol 4,5-bisphosphate 3-kinase catalytic subunit alpha isoform (Homo sapiens), P42336 [Q546K] (P42336 whole entry Q546K, canonical isoform): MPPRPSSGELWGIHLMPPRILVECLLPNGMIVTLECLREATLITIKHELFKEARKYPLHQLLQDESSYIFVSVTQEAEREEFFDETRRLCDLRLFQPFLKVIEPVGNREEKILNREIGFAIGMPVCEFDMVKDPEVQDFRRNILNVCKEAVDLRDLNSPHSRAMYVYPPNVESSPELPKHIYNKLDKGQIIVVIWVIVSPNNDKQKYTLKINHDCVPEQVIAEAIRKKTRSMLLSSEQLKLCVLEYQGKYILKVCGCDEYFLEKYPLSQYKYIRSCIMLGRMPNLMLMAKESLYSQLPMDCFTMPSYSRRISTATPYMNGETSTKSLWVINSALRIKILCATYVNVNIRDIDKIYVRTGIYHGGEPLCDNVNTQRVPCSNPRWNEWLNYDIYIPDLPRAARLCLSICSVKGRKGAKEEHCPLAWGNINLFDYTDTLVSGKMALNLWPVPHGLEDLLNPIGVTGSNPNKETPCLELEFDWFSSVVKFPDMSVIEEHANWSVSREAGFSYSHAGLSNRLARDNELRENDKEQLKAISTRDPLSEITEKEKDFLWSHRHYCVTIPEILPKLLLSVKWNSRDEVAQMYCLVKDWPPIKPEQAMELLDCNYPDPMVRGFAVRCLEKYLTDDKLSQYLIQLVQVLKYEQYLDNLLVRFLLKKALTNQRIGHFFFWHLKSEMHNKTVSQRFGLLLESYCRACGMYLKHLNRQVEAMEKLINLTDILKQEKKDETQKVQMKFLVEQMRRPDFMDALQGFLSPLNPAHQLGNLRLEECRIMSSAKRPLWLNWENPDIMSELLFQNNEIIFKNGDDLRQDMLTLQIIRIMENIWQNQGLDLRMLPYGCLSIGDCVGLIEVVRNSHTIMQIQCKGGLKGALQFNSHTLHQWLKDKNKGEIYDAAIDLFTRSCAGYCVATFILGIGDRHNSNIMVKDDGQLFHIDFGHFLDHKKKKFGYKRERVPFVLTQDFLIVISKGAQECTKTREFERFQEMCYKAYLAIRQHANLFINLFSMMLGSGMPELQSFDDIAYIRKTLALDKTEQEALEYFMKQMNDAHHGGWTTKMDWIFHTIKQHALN

[5] = target: Mitogen-activated protein kinase kinase kinase 13 (Homo sapiens) (UniProt O43283); conditions: Compound concentration 1000.0 nM
[6] = target: Mitogen-activated protein kinase 14 (Homo sapiens) (UniProt Q16539); conditions: Compound concentration 1000.0 nM
Chain of Mitogen-activated protein kinase 14 (Homo sapiens) (Q16539 whole entry): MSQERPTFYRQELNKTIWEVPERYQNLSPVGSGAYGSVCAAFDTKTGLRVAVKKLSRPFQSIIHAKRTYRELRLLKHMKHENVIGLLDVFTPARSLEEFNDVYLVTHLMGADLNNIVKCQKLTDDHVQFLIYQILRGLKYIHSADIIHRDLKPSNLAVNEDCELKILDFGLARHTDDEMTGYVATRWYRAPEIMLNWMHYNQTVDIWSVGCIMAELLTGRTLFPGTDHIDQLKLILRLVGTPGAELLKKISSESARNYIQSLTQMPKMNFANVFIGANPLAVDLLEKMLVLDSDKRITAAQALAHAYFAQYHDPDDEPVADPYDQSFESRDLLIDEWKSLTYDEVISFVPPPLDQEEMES

[7] = target: 5-hydroxytryptamine receptor 7 (Homo sapiens) (UniProt P34969); conditions: Compound concentration 10.0 uM
Chain of 5-hydroxytryptamine receptor 7 (Homo sapiens) (P34969 whole entry): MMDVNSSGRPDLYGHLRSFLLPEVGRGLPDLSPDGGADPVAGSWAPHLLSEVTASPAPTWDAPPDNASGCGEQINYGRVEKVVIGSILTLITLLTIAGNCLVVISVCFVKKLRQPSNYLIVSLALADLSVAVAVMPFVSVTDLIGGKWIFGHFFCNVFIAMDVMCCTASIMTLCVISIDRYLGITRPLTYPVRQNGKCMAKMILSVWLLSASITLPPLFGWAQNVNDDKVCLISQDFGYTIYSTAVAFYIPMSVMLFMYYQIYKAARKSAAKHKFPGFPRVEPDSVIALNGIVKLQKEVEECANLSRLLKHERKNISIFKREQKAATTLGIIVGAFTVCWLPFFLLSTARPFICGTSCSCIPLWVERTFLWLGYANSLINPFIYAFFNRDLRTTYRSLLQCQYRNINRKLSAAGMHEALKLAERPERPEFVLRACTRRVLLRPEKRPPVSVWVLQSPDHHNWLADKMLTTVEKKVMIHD

[8] = target: Receptor-interacting serine/threonine-protein kinase 4 (Homo sapiens) (UniProt P57078); conditions: Compound concentration 1000.0 nM
[9] = target: Histamine H1 receptor (Homo sapiens) (UniProt P35367); conditions: Compound concentration 10.0 uM
Chain of Histamine H1 receptor (Homo sapiens) (P35367 whole entry): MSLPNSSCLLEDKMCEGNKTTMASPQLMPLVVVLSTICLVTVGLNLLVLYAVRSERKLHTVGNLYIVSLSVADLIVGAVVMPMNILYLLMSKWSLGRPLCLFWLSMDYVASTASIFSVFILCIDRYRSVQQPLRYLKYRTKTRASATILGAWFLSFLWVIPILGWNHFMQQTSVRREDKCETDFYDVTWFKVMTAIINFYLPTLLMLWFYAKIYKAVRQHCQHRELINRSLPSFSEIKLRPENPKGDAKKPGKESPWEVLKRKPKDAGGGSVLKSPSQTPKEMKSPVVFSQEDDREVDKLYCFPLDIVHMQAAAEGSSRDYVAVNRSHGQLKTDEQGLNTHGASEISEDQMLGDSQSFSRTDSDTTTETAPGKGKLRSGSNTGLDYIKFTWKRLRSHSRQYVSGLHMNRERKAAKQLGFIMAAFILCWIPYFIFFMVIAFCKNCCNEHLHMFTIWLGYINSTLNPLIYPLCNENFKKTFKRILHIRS

[10] = target: Macrophage colony-stimulating factor 1 receptor (Homo sapiens) (UniProt P07333); conditions: Compound concentration 1000.0 nM
Chain of Macrophage colony-stimulating factor 1 receptor (Homo sapiens) (P07333 whole entry): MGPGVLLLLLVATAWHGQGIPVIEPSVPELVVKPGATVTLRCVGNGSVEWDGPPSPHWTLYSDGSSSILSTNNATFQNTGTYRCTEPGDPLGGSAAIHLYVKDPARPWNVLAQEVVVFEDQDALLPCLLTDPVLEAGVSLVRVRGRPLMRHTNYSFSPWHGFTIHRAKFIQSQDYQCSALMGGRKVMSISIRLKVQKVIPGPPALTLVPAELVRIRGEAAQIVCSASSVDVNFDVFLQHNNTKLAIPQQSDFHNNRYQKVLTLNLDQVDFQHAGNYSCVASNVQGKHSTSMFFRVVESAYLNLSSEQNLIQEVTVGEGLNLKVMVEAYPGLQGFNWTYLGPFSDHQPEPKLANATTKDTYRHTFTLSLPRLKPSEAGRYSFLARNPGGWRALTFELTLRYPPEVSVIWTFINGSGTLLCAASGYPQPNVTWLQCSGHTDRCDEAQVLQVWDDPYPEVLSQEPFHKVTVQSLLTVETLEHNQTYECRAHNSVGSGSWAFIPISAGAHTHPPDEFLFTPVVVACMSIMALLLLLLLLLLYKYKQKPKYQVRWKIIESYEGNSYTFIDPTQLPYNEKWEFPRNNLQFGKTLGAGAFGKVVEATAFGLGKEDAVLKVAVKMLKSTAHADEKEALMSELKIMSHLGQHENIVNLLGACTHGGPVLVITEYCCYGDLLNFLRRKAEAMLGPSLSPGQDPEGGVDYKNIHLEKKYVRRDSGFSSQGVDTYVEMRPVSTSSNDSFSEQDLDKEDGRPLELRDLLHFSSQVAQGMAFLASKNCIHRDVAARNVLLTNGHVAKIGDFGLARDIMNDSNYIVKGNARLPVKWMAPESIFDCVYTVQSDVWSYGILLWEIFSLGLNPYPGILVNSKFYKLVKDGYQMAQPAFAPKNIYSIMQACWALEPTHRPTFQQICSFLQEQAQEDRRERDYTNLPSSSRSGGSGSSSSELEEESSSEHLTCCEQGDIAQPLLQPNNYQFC

[11] = target: Cyclin-dependent kinase 15 (Homo sapiens) (UniProt Q96Q40); conditions: Compound concentration 1000.0 nM
[12] = target: Tyrosine-protein kinase SYK (Homo sapiens) (UniProt P43405); conditions: Compound concentration 1000.0 nM
[13] = target: Phosphatidylinositol 5-phosphate 4-kinase type-2 beta (Homo sapiens) (UniProt P78356); conditions: Compound concentration 1000.0 nM
[14] = target: Serine/threonine-protein kinase pim-2 (Homo sapiens) (UniProt Q9P1W9); conditions: Compound concentration 1000.0 nM
Chain of Serine/threonine-protein kinase pim-2 (Homo sapiens) (Q9P1W9 whole entry, looked up, canonical isoform): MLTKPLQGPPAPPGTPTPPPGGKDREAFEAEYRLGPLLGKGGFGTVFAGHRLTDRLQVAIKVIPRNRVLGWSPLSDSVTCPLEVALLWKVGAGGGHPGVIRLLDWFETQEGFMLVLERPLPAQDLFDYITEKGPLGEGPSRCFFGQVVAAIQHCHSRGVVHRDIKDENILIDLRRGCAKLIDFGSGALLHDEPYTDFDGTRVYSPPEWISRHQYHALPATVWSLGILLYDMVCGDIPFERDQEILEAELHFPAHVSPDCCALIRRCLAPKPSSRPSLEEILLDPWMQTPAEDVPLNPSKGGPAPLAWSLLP

[15] = target: Casein kinase I isoform gamma-3 (Homo sapiens) (UniProt Q9Y6M4); conditions: Compound concentration 1000.0 nM
[16] = target: Serine/threonine-protein kinase OSR1 (Homo sapiens) (UniProt O95747); conditions: Compound concentration 1000.0 nM
[17] = target: T1, Serine/threonine-protein kinase BRSK2 (Homo sapiens) (UniProt Q8IWQ3); conditions: Compound concentration 1000.0 nM
T1 sequence (whole entry): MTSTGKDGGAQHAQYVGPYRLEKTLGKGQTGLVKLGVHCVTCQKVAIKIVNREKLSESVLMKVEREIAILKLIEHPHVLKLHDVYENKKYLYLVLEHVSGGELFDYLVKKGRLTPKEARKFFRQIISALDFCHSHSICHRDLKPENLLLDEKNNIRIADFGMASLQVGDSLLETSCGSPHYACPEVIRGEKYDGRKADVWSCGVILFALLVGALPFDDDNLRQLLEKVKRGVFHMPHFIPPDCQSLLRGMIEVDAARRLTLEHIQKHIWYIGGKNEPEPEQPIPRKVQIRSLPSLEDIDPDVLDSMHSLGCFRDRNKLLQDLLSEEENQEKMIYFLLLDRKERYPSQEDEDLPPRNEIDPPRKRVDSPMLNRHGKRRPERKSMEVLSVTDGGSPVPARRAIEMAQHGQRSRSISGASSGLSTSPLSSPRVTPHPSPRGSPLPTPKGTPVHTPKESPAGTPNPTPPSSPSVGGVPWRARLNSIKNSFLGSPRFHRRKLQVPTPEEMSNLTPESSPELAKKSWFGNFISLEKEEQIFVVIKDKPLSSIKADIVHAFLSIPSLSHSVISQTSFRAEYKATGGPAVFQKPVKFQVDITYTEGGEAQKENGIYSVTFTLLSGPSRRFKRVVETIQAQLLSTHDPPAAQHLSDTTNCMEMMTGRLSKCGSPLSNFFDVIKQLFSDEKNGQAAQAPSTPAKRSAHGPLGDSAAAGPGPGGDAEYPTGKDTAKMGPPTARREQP

[18] = target: Non-receptor tyrosine-protein kinase TYK2 (Homo sapiens) (UniProt P29597); conditions: Compound concentration 1000.0 nM
[19] = tested on: Leucine-rich repeat serine/threonine-protein kinase 2 (Homo sapiens), Q5S007 [G2019S]; conditions: Compound concentration 1000.0 nM
[20] = target: Macrophage colony-stimulating factor 1 receptor (Homo sapiens) (UniProt P07333); conditions: Compound concentration 1000.0 nM; remark: listed apart in the source
[21] = target: T2, Ephrin type-A receptor 3 (Homo sapiens) (UniProt P29320); conditions: Compound concentration 1000.0 nM
T2 sequence (whole entry): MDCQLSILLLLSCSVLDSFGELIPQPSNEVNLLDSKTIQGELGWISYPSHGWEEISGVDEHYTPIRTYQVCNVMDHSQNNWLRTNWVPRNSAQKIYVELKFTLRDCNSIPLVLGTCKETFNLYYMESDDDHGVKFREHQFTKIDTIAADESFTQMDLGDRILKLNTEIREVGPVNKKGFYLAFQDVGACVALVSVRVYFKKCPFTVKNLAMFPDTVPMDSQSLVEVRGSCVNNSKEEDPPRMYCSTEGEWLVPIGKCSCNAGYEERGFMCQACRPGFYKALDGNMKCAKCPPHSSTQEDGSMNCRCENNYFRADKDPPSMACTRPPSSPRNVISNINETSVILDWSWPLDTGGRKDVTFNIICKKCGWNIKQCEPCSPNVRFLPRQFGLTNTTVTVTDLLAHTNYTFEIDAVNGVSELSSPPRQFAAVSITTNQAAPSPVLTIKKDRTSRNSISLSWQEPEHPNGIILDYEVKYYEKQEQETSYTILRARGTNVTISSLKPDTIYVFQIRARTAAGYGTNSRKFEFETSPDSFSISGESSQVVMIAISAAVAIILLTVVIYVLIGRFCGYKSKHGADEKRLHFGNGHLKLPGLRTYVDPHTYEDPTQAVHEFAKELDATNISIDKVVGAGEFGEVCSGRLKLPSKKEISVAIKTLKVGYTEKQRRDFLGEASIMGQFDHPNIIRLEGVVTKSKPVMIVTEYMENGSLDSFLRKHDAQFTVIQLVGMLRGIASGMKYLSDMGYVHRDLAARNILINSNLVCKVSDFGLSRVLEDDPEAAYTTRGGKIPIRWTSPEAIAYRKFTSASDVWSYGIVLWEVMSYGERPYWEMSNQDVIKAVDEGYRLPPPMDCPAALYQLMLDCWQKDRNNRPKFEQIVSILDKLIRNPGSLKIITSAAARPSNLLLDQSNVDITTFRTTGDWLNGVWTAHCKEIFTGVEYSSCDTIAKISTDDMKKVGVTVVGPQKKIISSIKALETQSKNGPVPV

[22] = target: Calcium/calmodulin-dependent protein kinase type 1D (Homo sapiens) (UniProt Q8IU85); conditions: Compound concentration 1000.0 nM

Chain of SRSF protein kinase 2 (Homo sapiens) (P78362 whole entry, looked up): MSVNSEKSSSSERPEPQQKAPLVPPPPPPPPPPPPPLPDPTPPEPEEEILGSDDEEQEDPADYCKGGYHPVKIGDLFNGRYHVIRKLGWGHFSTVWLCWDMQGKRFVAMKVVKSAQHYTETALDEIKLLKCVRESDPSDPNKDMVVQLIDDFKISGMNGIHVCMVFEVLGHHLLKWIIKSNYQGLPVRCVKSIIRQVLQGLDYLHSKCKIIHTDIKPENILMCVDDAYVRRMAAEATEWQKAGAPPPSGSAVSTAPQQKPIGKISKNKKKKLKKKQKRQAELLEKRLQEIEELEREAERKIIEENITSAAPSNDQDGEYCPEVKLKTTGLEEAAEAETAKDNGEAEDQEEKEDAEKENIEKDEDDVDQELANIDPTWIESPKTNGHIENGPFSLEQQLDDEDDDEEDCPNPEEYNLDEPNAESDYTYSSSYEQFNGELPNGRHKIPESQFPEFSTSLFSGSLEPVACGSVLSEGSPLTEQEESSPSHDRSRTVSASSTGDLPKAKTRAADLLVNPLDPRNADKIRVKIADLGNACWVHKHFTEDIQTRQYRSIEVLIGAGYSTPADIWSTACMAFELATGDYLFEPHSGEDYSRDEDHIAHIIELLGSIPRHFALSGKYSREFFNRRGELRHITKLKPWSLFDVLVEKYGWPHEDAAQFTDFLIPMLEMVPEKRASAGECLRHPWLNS
Chain of Dual specificity mitogen-activated protein kinase kinase 1 (Homo sapiens) (Q02750 whole entry, canonical isoform): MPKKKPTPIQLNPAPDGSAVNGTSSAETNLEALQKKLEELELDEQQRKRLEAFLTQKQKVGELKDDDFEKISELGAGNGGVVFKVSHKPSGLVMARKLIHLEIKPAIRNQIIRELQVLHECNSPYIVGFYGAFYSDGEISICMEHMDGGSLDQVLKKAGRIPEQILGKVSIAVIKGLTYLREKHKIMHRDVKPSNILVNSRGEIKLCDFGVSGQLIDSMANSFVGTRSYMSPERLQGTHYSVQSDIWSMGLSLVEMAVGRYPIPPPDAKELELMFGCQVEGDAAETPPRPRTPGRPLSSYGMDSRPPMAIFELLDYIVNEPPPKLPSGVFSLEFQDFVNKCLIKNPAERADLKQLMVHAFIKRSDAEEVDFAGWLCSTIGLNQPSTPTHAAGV

For `Cc1nc(C2CCN(C(=O)c3ccc(OC(F)(F)F)cc3N)CC2)c2ncc(N3CCN(C)CC3)cc2n1` [BAY-693], the residual activity [1] was 100%, the residual activity [2] was 74% and the residual activity [3] was 85%. It also gave a residual activity [4] of 88%, a residual activity [5] of 100% and a residual activity [6] of 100%. For the same compound, the inhibition [7] was -0.78%, the residual activity [8] was 84% and the inhibition [9] was 4.99%. For the same compound, the residual activity [10] was 94%, the residual activity [11] was 100% and the residual activity [12] was 98%. For the same compound, the residual activity [13] was 78%, the residual activity [14] was 100% and the residual activity [15] was 100%. For the same compound, the residual activity [16] was 49%, the residual activity [17] was 100% and the residual activity [18] was 100%. The residual activity [19] was 100%, the residual activity [20] was 99% and the residual activity [21] was 92%. The residual activity [22] was 100%.
For `CN1CCN(c2cnc3c(C4CCN(C(=O)c5ccc(OC(F)(F)F)cc5N)CC4)ncnc3c2)CC1` [BAY-885], the residual activity [1] was 100%, the residual activity [2] was 78% and the residual activity [3] was 95%. The residual activity [4] was 100%, the residual activity [5] was 100% and the residual activity [6] was 99%. The inhibition [7] was -9.57%, the residual activity [8] was 100% and the inhibition [9] was 14.6%. The residual activity [10] was 92%, the residual activity [11] was 100% and the residual activity [12] was 100%. It also gave a residual activity [13] of 79%, a residual activity [14] of 100% and a residual activity [15] of 100%. It also gave a residual activity [16] of 100%, a residual activity [17] of 100% and a residual activity [18] of 93%. The residual activity [19] was 100%, the residual activity [20] was 100% and the residual activity [21] was 100%. The residual activity [22] was 100%.
